Results published in patent EP3436024B1, “3-BETA-METHOXY-PREG FOR USE IN THE TREATMENT OF TREATMENT RESISTANT DEPRESSION” (Mapreg, priority 2016, dated 2017).

Assays:
[1] = target: T1, human progesterone receptor(PR) (Homo sapiens, UniProt P06401); experiment: Test of progesterone receptor agonist activity (MMTV-luciferase transactivation in transfected HEK293T cells); type: cell-based; conditions: 24 hours, increasing amounts, Figure 1
T1 construct: expressed in transfected cells; host or cells: HEK293T
T1 sequence (P06401 1-933): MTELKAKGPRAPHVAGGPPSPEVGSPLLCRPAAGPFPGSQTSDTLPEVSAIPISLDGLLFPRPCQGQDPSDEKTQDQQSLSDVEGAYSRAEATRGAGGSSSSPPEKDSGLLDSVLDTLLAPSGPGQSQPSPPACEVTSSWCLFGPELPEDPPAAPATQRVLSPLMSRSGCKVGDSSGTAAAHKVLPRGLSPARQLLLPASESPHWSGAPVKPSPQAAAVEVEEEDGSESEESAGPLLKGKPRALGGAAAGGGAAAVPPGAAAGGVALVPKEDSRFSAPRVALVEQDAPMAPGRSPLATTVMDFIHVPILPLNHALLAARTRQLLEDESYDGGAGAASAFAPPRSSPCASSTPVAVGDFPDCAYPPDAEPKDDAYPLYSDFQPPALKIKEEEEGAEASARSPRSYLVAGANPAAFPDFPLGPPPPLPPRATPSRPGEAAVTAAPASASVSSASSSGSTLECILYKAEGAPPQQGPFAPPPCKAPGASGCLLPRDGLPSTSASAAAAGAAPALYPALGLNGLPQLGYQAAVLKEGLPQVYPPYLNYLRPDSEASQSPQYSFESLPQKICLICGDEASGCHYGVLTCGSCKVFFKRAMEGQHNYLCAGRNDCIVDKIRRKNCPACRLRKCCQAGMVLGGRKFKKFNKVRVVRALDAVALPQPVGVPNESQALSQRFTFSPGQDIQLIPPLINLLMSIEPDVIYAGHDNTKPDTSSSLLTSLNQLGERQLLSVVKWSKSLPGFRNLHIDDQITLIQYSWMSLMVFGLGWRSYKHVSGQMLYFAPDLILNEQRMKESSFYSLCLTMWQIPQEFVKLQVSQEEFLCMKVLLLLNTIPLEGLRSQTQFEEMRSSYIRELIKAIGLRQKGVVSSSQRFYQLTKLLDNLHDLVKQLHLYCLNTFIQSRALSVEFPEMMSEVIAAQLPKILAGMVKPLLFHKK
Procedure: The main experimental setting used is the following: HEK293T cells were transiently transfected, using calcium phosphate precipitation technology, with expression vectors pSG5hPR (which permits expression of human progesterone receptor(PR)), pFC31-luc (contains the luciferase gene under the control of the MMTV promoter, which is in turn activated by binding of a progestin to progesterone receptor) and pcbetagal (which permits expression of betagalactosidase), and cultured during 24 hours with increasing amounts of various compositions: • 1. […] Test of progesterone receptor […] activity: transfected cells were cultured with progesterone (1 nM) and increasing amounts of RU486 (a well-known progesterone receptor antagonist) or 3-methoxy-pregnenolone. With this setting, a compound with progesterone receptor antagonist activity competes with progesterone for the occupation of progesterone receptor and results in a progressive loss of transactivation activity when the amount of this compound is increased compared to progesterone.

[2] = tested on: microtubule-associated protein2 (MAP2); experiment: Binding (affinity) by displacement of PREG-3H; conditions: index of binding
PC12 cells = experiment: Stimulation of neuritic sprouting; type: cell-based; conditions: PC12 cells differentiated with NGF (10 ng/ml), steroid 30 µM, 3 days; relative to PREG
Procedure: Stimulation of neuritic sprouting is conducted on PC12 cells differentiated in the presence of NGF (10 ng/ml) and the steroid being tested (30 µM) for 3 days. For each condition, the average length of the longest 200 neurites […] is measured simultaneously for 3 cultures.

[3] = target: purified tubulin and MAP2 (Homo sapiens, UniProt P11137); experiment: Microtubule polymerization activity (optical density at 345 nm); type: biochemical; conditions: increase in optical density at 345 nm, 37 °C, in the presence of GTP
Procedure: Activity is measured by the increase in optical density at 345 nm of a mixture of purified tubulin and MAP2, incubated at 37 °C in the presence of GTP.

Wistar Kyoto (WKY) rats [4] = experiment: Locomotor activity in the open-field arena, WKY rats; type: in vivo, rat; conditions: acute, fluoxetine 10 mg/kg i.p., ketamine 30 mg/kg i.p., 3 min, Fig. 5A
Procedure: (§1) After a 6-day period of acclimatization, all experimental groups received daily successive subcutaneous (250 µl per rat) and intraperitoneal (1 ml/kg) injections. WI rats received injection of vehicle (sesame oil + saline) while WKY rats were randomly assigned to […], as follow: KWY rats receiving only vehicle (sesame oil + saline) and WKY rats treated with MAP4343 (10 mg/kg, s.c.; rats received in parallel i.p. injections of saline), fluoxetine (10 mg/kg i.p., rats received in parallel s.c. injections of sesame oil) or ketamine (30 mg/kg, i.p.; rats received in parallel s.c. injections of sesame oil) (see Figure 3).
(§2) After, a 6-day period of acclimatization, the acute phase of treatment started for 4 days during behavioral tests were performed (Figure 3). All animals were injected 1h30 before the starting of behavioral test.
(§3) The animals were individually placed in the open field arena (OFA) (70 x 100 x 70 cm), with a central square (35 x 50 cm), located in a 50 lux illuminated room and videotaped during 3 min using a computerized system (VideoTrack V2.5, ViewPoint, Lyon, France).
(§4) OFA allows firstly the evaluation of total locomotor activity (LMA) thereby measuring the total distance travelled in the arena (in cm). Secondly, measurements of the activity in the center of the arena like (i) the number of entries in the center of arena and (ii) the total time spent in the center of arena (in sec) provide cues of anxiety-like behavior (Prut and Belzung, 2003). All these behavioral parameters were instantaneously measured automatically with the VideoTrack V2.5 software from the videos.

Wistar Kyoto (WKY) rats [5] = experiment: Anxious-like behavior: activity in the central square of the open-field arena, WKY rats; type: in vivo, rat; conditions: acute, MAP4343 10 mg/kg s.c., fluoxetine 10 mg/kg i.p., ketamine 30 mg/kg i.p.
Procedure: as §1, §2, §3, §4

Wistar Kyoto (WKY) rats [6] = experiment: Elevated-plus maze (EPM), WKY rats; type: in vivo, rat; conditions: acute, MAP4343 10 mg/kg s.c., fluoxetine 10 mg/kg, ketamine 30 mg/kg i.p., Fig. 5D
Procedure: as §1, §2
We used the elevated-plus maze (EPM) as an assay of anxiety-related behavior in rodents (Walf and Frye, 2007). Rats were initially placed in the center of the plus-maze, consisting of two open arms (50 x 10 cm) and two closed arms (50 x 10 cm enclosed by 40 cm walls), in a 50 lux illuminated room and videotaped during 5 min using a computerized system (VideoTrack V2.5, ViewPoint, Lyon, France). The time spent in the open versus closed arms was blindly measured by two independent experimenters from the recorded video, and the open arm-index was calculated as follow: time in the open arms (sec) / [time in open arms (sec) + time in closed arms (sec)].

Chain of purified tubulin and MAP2 (P11137 whole entry): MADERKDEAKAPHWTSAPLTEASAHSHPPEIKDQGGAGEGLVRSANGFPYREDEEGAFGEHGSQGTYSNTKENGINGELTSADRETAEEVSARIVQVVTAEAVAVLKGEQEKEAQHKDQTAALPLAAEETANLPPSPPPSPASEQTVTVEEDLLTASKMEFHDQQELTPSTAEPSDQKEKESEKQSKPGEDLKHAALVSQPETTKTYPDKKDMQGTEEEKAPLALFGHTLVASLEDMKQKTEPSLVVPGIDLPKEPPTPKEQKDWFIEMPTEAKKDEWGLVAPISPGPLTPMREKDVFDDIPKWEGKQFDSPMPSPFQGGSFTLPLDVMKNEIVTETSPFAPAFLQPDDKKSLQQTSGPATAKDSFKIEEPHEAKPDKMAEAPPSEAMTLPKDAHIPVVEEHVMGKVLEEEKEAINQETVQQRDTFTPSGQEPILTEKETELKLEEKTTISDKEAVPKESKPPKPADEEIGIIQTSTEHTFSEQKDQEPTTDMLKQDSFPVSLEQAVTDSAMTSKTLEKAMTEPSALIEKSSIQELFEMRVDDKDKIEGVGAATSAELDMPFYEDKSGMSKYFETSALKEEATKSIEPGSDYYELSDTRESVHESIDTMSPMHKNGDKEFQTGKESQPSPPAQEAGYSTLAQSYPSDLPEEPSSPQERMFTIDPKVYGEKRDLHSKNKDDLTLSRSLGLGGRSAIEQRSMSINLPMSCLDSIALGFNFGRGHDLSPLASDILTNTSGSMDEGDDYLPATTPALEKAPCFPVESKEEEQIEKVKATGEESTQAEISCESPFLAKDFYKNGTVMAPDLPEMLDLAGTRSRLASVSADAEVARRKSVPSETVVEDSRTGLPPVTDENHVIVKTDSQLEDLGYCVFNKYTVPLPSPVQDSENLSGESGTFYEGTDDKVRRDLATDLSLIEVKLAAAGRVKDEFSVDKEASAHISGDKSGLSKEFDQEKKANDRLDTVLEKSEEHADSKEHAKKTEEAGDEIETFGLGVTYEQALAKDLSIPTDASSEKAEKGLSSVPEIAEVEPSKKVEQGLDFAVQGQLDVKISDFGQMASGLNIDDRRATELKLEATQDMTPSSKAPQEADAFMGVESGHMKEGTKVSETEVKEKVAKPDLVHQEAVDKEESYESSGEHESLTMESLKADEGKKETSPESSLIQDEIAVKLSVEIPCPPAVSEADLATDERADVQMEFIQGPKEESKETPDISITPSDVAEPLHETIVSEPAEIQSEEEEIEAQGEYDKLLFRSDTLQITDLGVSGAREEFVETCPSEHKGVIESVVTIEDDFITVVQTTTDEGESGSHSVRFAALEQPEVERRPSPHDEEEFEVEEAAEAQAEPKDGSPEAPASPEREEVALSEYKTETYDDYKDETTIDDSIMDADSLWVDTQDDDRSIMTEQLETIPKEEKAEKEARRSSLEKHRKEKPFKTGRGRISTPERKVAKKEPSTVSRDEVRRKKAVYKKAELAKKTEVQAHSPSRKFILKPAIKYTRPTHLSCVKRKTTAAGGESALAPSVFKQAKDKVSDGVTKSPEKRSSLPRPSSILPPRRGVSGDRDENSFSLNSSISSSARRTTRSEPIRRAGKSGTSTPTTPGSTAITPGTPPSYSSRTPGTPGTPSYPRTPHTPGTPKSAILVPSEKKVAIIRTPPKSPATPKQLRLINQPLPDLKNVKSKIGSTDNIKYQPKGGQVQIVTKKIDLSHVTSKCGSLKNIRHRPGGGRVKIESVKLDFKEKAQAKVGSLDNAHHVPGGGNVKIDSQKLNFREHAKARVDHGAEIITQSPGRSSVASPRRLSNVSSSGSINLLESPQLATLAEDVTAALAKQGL

CC(=O)[C@H]1CC[C@H]2[C@@H]3CCC4=CC(=O)CC[C@]4(C)[C@H]3CC[C@]12C [progesterone, reference compound]
progesterone receptor agonist activity (transactivation activity leading to the expression of luciferase) [1]: permits a transactivation activity

CC(=O)O[C@H](C)[C@H]1CC[C@H]2[C@@H]3CC=C4C[C@@H](O)CC[C@]4(C)[C@H]3CC[C@]12C [Pregna-5-ene-3β,20β-diol-20-acetate]
Affinity [2]: 60% of PREG | Neuritic sprouting (PC12 cells): ++ (equal to) | Activity [3]: 108% of PREG

CO[C@H]1CC[C@@]2(C)[C@@H](CC[C@@H]3[C@@H]2CC[C@]2(C)[C@@H](C(C)=O)CC[C@@H]32)C1 (stereo in doubt) [3β-methoxy-5a-pregnane-20-one]
Affinity [2]: 87% of PREG | Neuritic sprouting (PC12 cells): +++ | Activity [3]: 10% of PREG

CC(=O)[C@H]1CC[C@H]2[C@@H]3CC=C4C[C@@H](O)CC[C@]4(C)[C@H]3CC[C@]12C [Pregnenolone (PREG), 3β-hydroxypregn-5α-en-20α-one, reference compound]
Affinity [2]: 100% of PREG | Neuritic sprouting (PC12 cells): ++ (equal to) | Activity [3]: 100% of PREG

CC(=O)[C@H]1[C@H](C)C[C@H]2[C@@H]3CC[C@H]4C[C@@H](O)CC[C@]4(C)[C@H]3CC[C@@]21C [3β-hydroxy-5a-pregnane-20-one-16a-methyl]
Affinity [2]: 57% of PREG | Activity [3]: 53% of PREG

CNC1(c2ccccc2Cl)CCCCC1=O (stereo not shown) [ketamine]
locomotor activity (total distance travelled in the open-field arena), change as compared to WKY receiving vehicle (Wistar Kyoto (WKY) rats [4]; MAP4343 10 mg/kg s.c.): no significant change | locomotor activity (total distance travelled in the open-field arena), change as compared to MAP4343-treated WKY (Wistar Kyoto (WKY) rats [4]): no significant change | number of entries in the central square of OFA, change as compared to WKY receiving only vehicle (Wistar Kyoto (WKY) rats [5]; Fig. 5B): failed to significantly modify | time spent in the center of open-field, change as compared to WKY receiving vehicle (Wistar Kyoto (WKY) rats [5]; Fig. 5C): did not induce any significant change | open-arm (OA) index, change when compared to WKY receiving vehicle alone (Wistar Kyoto (WKY) rats [6]): -29%

CO[C@H]1CC[C@@]2(C)[C@@H](CC[C@@H]3[C@@H]2CC[C@]2(C)[C@@H]([C@@H](C)O)CC[C@@H]32)C1 [3β-methoxy-5a-pregnane-20β-ol]
Affinity [2]: 65% of PREG | Neuritic sprouting (PC12 cells): ++ (equal to) | Activity [3]: 65% of PREG

CC(=O)[C@@]12C[C@@H]1C[C@H]1[C@@H]3CC=C4C[C@@H](O)CC[C@]4(C)[C@H]3CC[C@@]12C [PREG-16a,17a-methylene]
Affinity [2]: 62% of PREG | Neuritic sprouting (PC12 cells): + (stimulation is lower than) | Activity [3]: 49% of PREG

CC(=O)[C@H]1[C@H](C)C[C@H]2[C@@H]3CC=C4C[C@@H](O)CC[C@]4(C)[C@H]3CC[C@@]21C [PREG-16a-methyl]
Affinity [2]: 80% of PREG | Neuritic sprouting (PC12 cells): ++ (equal to) | Activity [3]: 70% of PREG

CC(=O)[C@@]12O[C@@H]1C[C@H]1[C@@H]3CC=C4C[C@@H](O)CC[C@]4(C)[C@H]3CC[C@@]12C [PREG-16a,17a-epoxy]
Affinity [2]: 41% of PREG | Neuritic sprouting (PC12 cells): + (stimulation is lower than) | Activity [3]: 54% of PREG

CO[C@H]1CC[C@@]2(C)C(=CCC3C2CC[C@@]2(C)C3CC[C@@]2(C(C)=O)C(Cl)Cl)C1 (stereo partly drawn) [3β-methoxy-pregna-5-ene-20-one-17a-dichloromethyl]
Affinity [2]: 53% of PREG | Neuritic sprouting (PC12 cells): +++ | Activity [3]: 113% of PREG

CO[C@H]1CC[C@@]2(C)C(=CC[C@H]3C4=CC[C@H](C(C)=O)[C@@]4(C)CC[C@@H]32)C1 [3β-methoxy-pregna-5,14-diene-20-one]
Affinity [2]: 102% of PREG | Neuritic sprouting (PC12 cells): + (stimulation is lower than) | Activity [3]: 50% of PREG

CC(=O)[C@H]1[C@@H](C)C[C@H]2[C@@H]3CC=C4C[C@@H](O)CC[C@]4(C)[C@H]3CC[C@@]21C [PREG-168-methyl]
Affinity [2]: 63% of PREG | Activity [3]: 67% of PREG
